Test results reported in US20170045513A1, “METHODS OF DIAGNOSING CELIAC DISEASE USING IP-10” (ImmusanT, Inc., priority 2014, published 2017).
Non-standard residues stand in square brackets, D forms with d. pGlu = O=C1CC[C@@H](C(=O)O)N1

Key:
Format in all cases: cell-based, human
gluten-reactive T cells [1] = assay: Overnight IFNγ ELISpot assay with fresh PBMC; conditions: for Percent of maximal response to individual gluten peptides, ELISp: after oral gluten challenge; for IFNγ ELISpot % max Mean: n = 5, blood after oral gluten challenge, individual peptides 5 μM (Peptide 2* of P14, Pepscan: 10 μg/mL (5.45 μM))
Procedure, shortened: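 Read-out is IFNγ spot-forming units per well, counted automatically after overnight culture of fresh PBMC (0.4 million/well) with single peptides (duplicate) or pools (triplicate). Donors: HLA-DQ2.5+ celiac patients on gluten-free diet, bled pre- and day 6 after 3-day oral gluten challenge.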

gluten-reactive T cells [2] = assay: Cytokine release assays taken together (IFNγ ELISpot, whole blood IFNγ and IP-10, in-tube IFNγ ELISA); conditions: blood collected after oral gluten challenge
Procedure, shortened: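 Whole blood with peptides (P3 0.05-50 μg/mL; P13/P14 0.025-25 μM; […]), 24 h, 37 °C; plasma IFNγ/IP-10 by multiplex beads. Tube assay: 1 mL blood with P3 or CEF, 24 h, plasma IFNγ ELISA; elevated if >7.2 pg/mL above medium tube and SI >1.25. ELISpot overnight on fresh PBMC.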

gluten-reactive T cells [3] = assay: 96-well plate whole blood cytokine release, IFNγ by MAGPIX multiplex bead assay; conditions: for Percent of maximal response to individual gluten peptides, IFNg: after oral gluten challenge; for IFNγ WB MAGPIX % max Mean: n = 8, blood after oral gluten challenge, individual peptides 5 μM (Peptide 2* of P14, Pepscan: 10 μg/mL (5.45 μM))

Row | Substance | IFNγ ELISpot response relative to Peptide 14 5 μM (gluten-reactive T cells [1]; Peptide 3 10 μg/mL (5.3 μM)) | Percent of maximal response to individual gluten peptides, ELISp (gluten-reactive T cells [1]; Subject 3, Max. 18 SFU) | Percent of maximal response to individual gluten peptides, ELISp (gluten-reactive T cells [1]; Subject 4, Max. 36 SFU) | Percent of maximal response to individual gluten peptides, ELISp (gluten-reactive T cells [1]; Subject 6, Max. 16 SFU) | Percent of maximal response to individual gluten peptides, ELISp (gluten-reactive T cells [1]; Subject 8, Max. 17 SFU) | Percent of maximal response to individual gluten peptides, ELISp (gluten-reactive T cells [1]; Subject 10, Max. 11 SFU) | IFNγ ELISpot % max Mean (gluten-reactive T cells [1]) | rank of activity among individual gluten peptides (gluten-reactive T cells [2]) | Percent of maximal response to individual gluten peptides, IFNg (gluten-reactive T cells [3]; Subject 2, Max. 116 pg/mL) | Percent of maximal response to individual gluten peptides, IFNg (gluten-reactive T cells [3]; Subject 3, Max. 799 pg/mL) | Percent of maximal response to individual gluten peptides, IFNg (gluten-reactive T cells [3]; Subject 4, Max. 136 pg/mL) | Percent of maximal response to individual gluten peptides, IFNg (gluten-reactive T cells [3]; Subject 6, Max. 72 pg/mL) | Percent of maximal response to individual gluten peptides, IFNg (gluten-reactive T cells [3]; Subject 7, Max. 17 pg/mL) | Percent of maximal response to individual gluten peptides, IFNg (gluten-reactive T cells [3]; Subject 8, Max. 47 pg/mL) | Percent of maximal response to individual gluten peptides, IFNg (gluten-reactive T cells [3]; Subject 9, Max. 67 pg/mL) | Percent of maximal response to individual gluten peptides, IFNg (gluten-reactive T cells [3]; Subject 10, Max. 229 pg/mL) | IFNγ WB MAGPIX % max Mean (gluten-reactive T cells [3]) | whole blood IFNγ release relative to that stimulated by Peptide 14 (gluten-reactive T cells [3]; whole blood incubations after oral gluten challenge) | activity relative to Peptide 14 in the cytokine release assays (gluten-reactive T cells [2])
1 | (pE)PEQPIPEQPQPYPQQ-amide ([pGlu]PEQPIPEQPQPYPQQ-NH2; SMILES CC[C@H](C)[C@H](NC(=O)[C@@H]1CCCN1C(=O)[C@H](CCC(N)=O)NC(=O)[C@H](CCC(=O)O)NC(=O)[C@@H]1CCCN1C(=O)[C@@H]1CCC(=O)N1)C(=O)N1CCC[C@H]1C(=O)N[C@@H](CCC(=O)O)C(=O)N[C@@H](CCC(N)=O)C(=O)N1CCC[C@H]1C(=O)N[C@@H](CCC(N)=O)C(=O)N1CCC[C@H]1C(=O)N[C@@H](Cc1ccc(O)cc1)C(=O)N1CCC[C@H]1C(=O)N[C@@H](CCC(N)=O)C(=O)N[C@@H](CCC(N)=O)C(N)=O) [Peptide 3] | only one-half | 50 % of max | 83 % of max | 69 % of max | 53 % of max | 9 % of max | 53 % max | second most active | 35 % of max | 92 % of max | 66 % of max | 63 % of max | 6 % of max | 89 % of max | 60 % of max | 81 % of max | 62 % max | one-third less | –
2 | (pE)PQPYPEQPQPFPQQ-amide ([pGlu]PQPYPEQPQPFPQQ-NH2; SMILES NC(=O)CC[C@H](NC(=O)[C@H](CCC(N)=O)NC(=O)[C@@H]1CCCN1C(=O)[C@H](Cc1ccccc1)NC(=O)[C@@H]1CCCN1C(=O)[C@H](CCC(N)=O)NC(=O)[C@@H]1CCCN1C(=O)[C@H](CCC(N)=O)NC(=O)[C@H](CCC(=O)O)NC(=O)[C@@H]1CCCN1C(=O)[C@H](Cc1ccc(O)cc1)NC(=O)[C@@H]1CCCN1C(=O)[C@H](CCC(N)=O)NC(=O)[C@@H]1CCCN1C(=O)[C@@H]1CCC(=O)N1)C(N)=O) [Peptide 8] | – | 44 % of max | 64 % of max | 31 % of max | 18 % of max | 27 % of max | 37 % max | – | 35 % of max | 24 % of max | 39 % of max | 6 % of max | 0 % of max | 42 % of max | 5 % of max | 45 % of max | 25 % max | – | approximately one-half to one-fifth as active as Peptide 14
